Measurements as given in patent US20220177485A1, “CAMPTOTHECIN DERIVATIVE, PREPARATION METHOD THEREFOR AND APPLICATION THEREOF” (MARINE BIOMEDICAL RESEARCH INSTITUTE OF QINGDAO CO., LTD., priority 2018, published 2022).
Where “and” joins values, the source holds several entries; their conditions need not be identical. Equal values may be shown once. Read-outs that look alike come from different tables or passages of the source. Marks after values point to notes of the source that are not given here.

How the values were obtained:
[1] = tested on: HCT-116 transplanted tumors; conditions: for Inhibitory rate: day 23; for Tumor volume size: day 23, x ± SE
Procedure: Digesting collecting cells after the desired amount of cells. Diluting the cells into 250 million/ml cell suspension with 5 A culture medium containing 10% fetal bovine serum. […] Stay around tumor growth to 1 g tissue block, cutting short diameter growth of around 1 mm plaque, by inserting a catheter method. […] Compound of low dose group and high dose group were given by gavages once a week, respectively. The group of irinotecan and 5-fluorouracil were treated by intravenous every three days. Recording changes in body weight in mice, and tumors size three times a week.

[2] = tested on: K562 cells (human chronic myeloid leukemia cells); assay: growth inhibition of tumor cells in vitro, K562; format: cell-based; conditions: K562 cell line, read-out: IC50 K562
Description: (§1) We tested compounds target a variety of tumor cell for the growth inhibition to show its antitumor activity by using the method of the field technicians known. Chooses the tumor cell lines include: A549 cell non-small cell lung cancer cell line (people), K562 cells (human chronic myeloid leukemia cells), NCI-H1975 cells (non-small cell lung adenocarcinoma cancer cell), MDA-MB-231 cells (human breast cancer cells) and HCT-116 cells (human colon cancer cells).

[3] = tested on: A549 lung transplantation tumor model and RM-1 (prostate) transplantation tumor model; assay: antitumor activity in vivo, transplanted tumor models in kunming mice; conditions: intraperitoneal injection
Procedure: Using the known in the field of technology, the antitumor activity of compounds in vivo was tested in kunming mice transplanted tumor model. The transplantation tumor models tested including A549 lung transplantation tumor model and RM-1 (prostate) transplantation tumor model. We conducted the tests by intraperitoneal injection.

[4] = tested on: A549 cell non-small cell lung cancer cell line; assay: growth inhibition of tumor cells in vitro, A549; format: cell-based, human; conditions: read-out: IC50 A549
Description: as §1

[5] = target: heat shock protein (HSP90); assay: macromolecular interaction on chip, HSP90; format: binding; conditions: compound fixed on the chip; HSP90 100 nM
Procedure: (§2) The experimental scheme: 1. Fixed the compounds on the chip:
(§3) Mobile phase were EGF (1 μM), FGF (1 μM), HSP90 (100 nM), FKBP12 (100 nM).
(§4) Detection whether small molecule compounds combined with the provided protein of heat shock protein (HSP90), epidermal growth factor (EGF) and fibroblast growth factor (FGF); and provide relevant data of combined dynamics.

[6] = target: T1, epidermal growth factor (EGF) (Homo sapiens, UniProt P01133); assay: macromolecular interaction on chip, EGF; format: binding; conditions: for KD EGF: compound fixed on the chip, EGF 1 μM
T1 construct: epidermal growth factor (EGF)
Procedure: as §2, §3, §4

[7] = target: fibroblast growth factor (FGF); assay: macromolecular interaction on chip, FGF; format: binding; conditions: compound fixed on the chip; FGF 1 μM
Procedure: as §2, §3, §4

[8] = tested on: NCI-H1975 cells (non-small cell lung adenocarcinoma cancer cell); assay: growth inhibition of tumor cells in vitro, NCI-H1975; format: cell-based; conditions: for IC50: Homo sapiens
Description: as §1

[9] = tested on: MDA-MB-231 cells (human breast cancer cells); assay: growth inhibition of tumor cells in vitro, MDA-MB-231; format: cell-based; conditions: for IC50: Homo sapiens
Description: as §1

[10] = tested on: HCT-116 cells (human colon cancer cells); assay: cells; format: cell-based; conditions: for IC50: Homo sapiens
Description: as §1

[11] = 20 mg/kg intravenous every three days
[12] = Homo sapiens, A549, A549 cell line
[13] = NCI-H1975, read-out: IC50 NCI-H1975
[14] = MDA-MB-231, read-out: IC50 MDA-MB-231
[15] = HCT-116, read-out: IC50 HCT-116
[16] = NCI-H1975 cell line, read-out: IC50 NCI-H1975
[17] = MDA-MB-231 cell line, read-out: IC50 MDA-MB-231
[18] = HCT-116 cell line, read-out: IC50 HCT-116

T1 sequence (P01133 971-1023 limits assumed, species assumed): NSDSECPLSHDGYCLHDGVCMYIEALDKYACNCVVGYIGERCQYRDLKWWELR

Row | SMILES | KD HSP90 [5] | KD EGF [6] | KD FGF [7] | IC50 [8, 13] [nM] | IC50 [9, 14] [nM] | IC50 [10, 15] [nM] | other results
1 | O=c1[nH]cc(F)c(=O)[nH]1 [5 - fluorouracil, 5-fluorouracil, reference compound] | – | – | – | – | – | – | Inhibitory rate [1, 11]: 55.64^a %; Tumor volume size [1, 11]: 342.28 ± 128.00^a mm^3
2 | CC[C@@]1(O)C(=O)OCc2c1cc1n(c2=O)Cc2c-1nc1cc3c(cc1c2CCc1ccc(N2CCCC2)c(F)c1)OCO3 [Compound 11, 20(S)-7-(3-fluoro-4-(pyrrolidin-1-yl))-10,11-methylenedioxy-camptothecin] | – | – | – | – | – | – | IC50 [2]: 305 ± 8.75 nM; melting point: > 250 °C; antitumor activity in vivo compared with topotecan [3]: better than that of topotecan
3 | CC[C@@]1(O)C(=O)OCc2c1cc1n(c2=O)Cc2c-1nc1cc3c(cc1c2CCc1cccc(N2CCOCC2)c1)OCO3 [Compound 14] | No combination | No combination | No combination | – | – | – | IC50 ([4]; A549 cell line): 19 ± 3.47 nM; IC50 [4, 12]: 10 to 50 nM; IC50 [2]: 1949 ± 15.7 nM; melting point: 163 to 165 °C
4 | CC[C@@]1(O)C(=O)OCc2c1cc1n(c2=O)Cc2c-1nc1cc3c(cc1c2CCc1ccccc1N1CCOCC1)OCO3 [Compound 15] | – | – | – | – | – | – | melting point: > 250 °C; antitumor activity in vivo compared with topotecan [3]: better than that of topotecan
5 | CC[C@@]1(O)C(=O)OCc2c1cc1n(c2=O)Cc2c-1nc1cc3c(cc1c2-c1ccncc1)OCO3 [Compound 21, 20(S)-7-(pyridin-4-yl)-10,11-methylenedioxy-camptothecin] | No combination | can combine | can combine | 20.4 ± 3.65 | 4.92 ± 0.36 | 0.74 ± 0.07 | Kd [6]: 49.3 nM; Kd [7]: 18.9 nM
6 | CC[C@@]1(O)C(=O)OCc2c1cc1n(c2=O)Cc2c-1nc1cc3c(cc1c2-c1cccnc1)OCO3 [Compound 22, 20(S)-7-(pyridin-3-yl)-10,11-methylenedioxy-camptothecin] | – | – | – | 12.6 ± 2.43 | 4.09 ± 0.46 | 0.18 ± 0.03 | –
7 | CC[C@@]1(O)C(=O)OCc2c1cc1n(c2=O)Cc2c-1nc1cc3c(cc1c2-c1ccoc1)OCO3 [Compound 23, 20(S)-7-(furan-3-yl)-10,11-methylenedioxy-camptothecin] | No combination | No combination | No combination | – | – | – | IC50 [8, 16]: 95.5 ± 5.57 nM; IC50 [9, 17]: 83.8 ± 6.64 nM; IC50 [10, 18]: 2.97 ± 0.25 nM; mice weight change ([1]; high and low dose group, weight returned after 10 days but still lower than control): declined; Tumor volume size ([1]; high dose 5 mg/kg, gavage once a week): 19.94 ± 2.17*^a mm^3; Inhibitory rate ([1]; high dose 5 mg/kg, gavage once a week, 5 mg/kg): 87.04% and 95.45^a %; Tumor volume size ([1]; low dose 2.5 mg/kg, gavage once a week): 100.52 ± 20.45*^a mm^3; Inhibitory rate ([1]; low dose 2.5 mg/kg, gavage once a week, 2.5 mg/kg): 95.45% and 87.04^a %; antitumor activity in vivo compared with topotecan [3]: better than that of topotecan
8 | CC[C@@]1(O)C(=O)OCc2c1cc1n(c2=O)Cc2c-1nc1cc3c(cc1c2-c1ccsc1)OCO3 [Compound 24, 20(S)-7-(thiophene-3-yl)-10,11-methylenedioxy-camptothecin] | No combination | No combination | No combination | – | – | – | IC50 [8, 16]: 16.2 ± 0.83 nM; IC50 [9, 17]: 1.93 ± 0.26 nM; ranking of cytotoxic activity in HCT-116 [10]: best cytotoxic activity; IC50 [10, 18]: 0.21 ± 0.02 nM
9 | CC[C@@]1(O)C(=O)OCc2c1cc1n(c2=O)Cc2c-1nc1cc3c(cc1c2-c1cnn(C)c1)OCO3 [Compound 25, 20(S)-7-(1-methyl-1H-pyrazol-4-yl)-10,11-methylenedioxy-camptothecin] | No combination | No combination | No combination | – | – | – | IC50 [8, 16]: 35.2 ± 3.15 nM; IC50 [9, 17]: 3.76 ± 1.08 nM; IC50 [10, 18]: 0.34 ± 0.06 nM
10 | CC[C@@]1(O)C(=O)OCc2c1cc1n(c2=O)Cc2c-1nc1cc3c(cc1c2-c1cccs1)OCO3 [Compound 26, 20(S)-7-(thiophene-2-yl)-10,11-methylenedioxy-camptothecin] | – | – | – | 0.36 ± 0.06 | 0.56 ± 0.03 | 102 ± 6.18 | ranking of activity in NCI-H1975 ([8]; among Table 2 compounds): best activities; ranking of activity in MDA-MB-231 ([9]; among Table 2 compounds): best activities
11 | CC[C@@]1(O)C(=O)OCc2c1cc1n(c2=O)Cc2c-1nc1cc3c(cc1c2-c1ccco1)OCO3 [Compound 27, 20(S)-7-(furan-2-yl)-10,11-methylenedioxy-camptothecin] | – | – | – | 4.53 ± 0.16 | 1.79 ± 0.14 | 0.25 ± 0.01 | –
12 | CC[C@@]1(O)C(=O)OCc2c1cc1n(c2=O)Cc2c-1nc1cc3c(cc1c2-c1cnn(C2CCCCO2)c1)OCO3 (some centres unmarked) [Compound 28] | – | – | – | 7.97 ± 0.52 | 1.56 ± 0.14 | 0.78 ± 0.06 | –
13 | CC[C@@]1(O)C(=O)OCc2c1cc1n(c2=O)Cc2c-1nc1cc3c(cc1c2-c1ccc2[nH]ccc2c1)OCO3 [Compound 29] | – | – | – | 79.7 ± 3.52 | 7.98 ± 0.72 | 1.84 ± 0.11 | –
14 | CC[C@@]1(O)C(=O)OCc2c1cc1n(c2=O)Cc2c-1nc1cc3c(cc1c2-c1ccnn1C)OCO3 [Compound 30] | – | – | – | 37.3 ± 2.82 | 43.4 ± 2.18 | 0.93 ± 0.08 | –
15 | CC[C@@]1(O)C(=O)OCc2c1cc1n(c2=O)Cc2c-1nc1cc3c(cc1c2CCN1CCOCC1)OCO3 [Compound 51, 20(S)-7-(2-morpholinoethyl)-10,11-methylenedioxy-camptothecin] | No combination | can combine | can combine | – | – | – | IC50 [2]: 13 ± 3.25 nM; Kd [6]: 4.15 nM; Kd [7]: 46 nM; antitumor activity in vivo compared with topotecan [3]: better than that of topotecan
16 | CCc1c2c(nc3ccc(OC(=O)N4CCC(N5CCCCC5)CC4)cc13)-c1cc3c(c(=O)n1C2)COC(=O)[C@]3(O)CC [Irinotecan, reference compound] | – | – | – | – | – | – | Inhibitory rate ([1]; 6 mg/kg intravenous every three days): 78.12^a %
17 | CC[C@@]1(O)C(=O)OCc2c1cc1n(c2=O)Cc2cc3c(CN(C)C)c(O)ccc3nc2-1 [Topotecan, reference compound] | No combination | No combination | No combination | – | – | – | IC50 [4, 12]: 559 ± 8.6 nM; IC50 [2]: 636 ± 8.95 nM; IC50 [8, 16]: > 500 nM; IC50 [9, 17]: 123 ± 18.2 nM; IC50 [10, 18]: > 500 nM
